The numbers were not newly measured in US20130040915A1, “PHARMACEUTICAL COMPOSITION” (CAPITAL, BUSINESS Y GESTION DE FINANZAS, S.L., priority 2010, published 2013), which cites them from elsewhere.

As usually defined, the pKa is the pH at which an ionisable group is half protonated.

Data set [1] relates to tumor-induced hypercalcaemia. The settings on record: subcutaneous infusion.
The conditions of data set [2]: high concentrations, of the order of 4.8 mg/ml.
Assay in data set [3]: not given
This is another data set of the same source.

In data set [4] the test system is adipose tissue cell membranes. As to conditions: concentrations of 1%.

For the compound `O=P(O)(O)C(O)(Cn1ccnc1)P(=O)(O)O` [Zoledronic acid], the “chemical stability in autoclave sterilization condition” value is “chemically very stable”.
Regarding `O=P(O)(O)C(Cl)(Cl)P(=O)(O)O` [clodronate], in data set [1] (1500 mg in 50 to 1000 ml, 2 to 24 hours), the tolerability entry is given as “well tolerated”. In data set [1] (149 patients, 254 infusions), the “control of tumor-induced hypercalcaemia (lowering the level of calcium)” value is “effective”.
With `O=C([O-])CC(O)(CC(=O)[O-])C(=O)[O-].[Na+].[Na+].[Na+]` [sodium citrate], the “pain after a subcutaneous injection compared with a solution with histidine” value in data set [2] is on record as “more pain”.
`C[C@H](CCC(=O)NCCS(=O)(=O)O)[C@H]1CC[C@H]2[C@@H]3[C@H](O)C[C@@H]4C[C@H](O)CC[C@]4(C)[C@H]3C[C@H](O)[C@]12C` [sodium taurocholate]: in data set [3], the pKa was 1.4.
With sodium deoxycholate, the pKa in data set [3] is recorded as 6.58. For the same compound, in data set [3] (pH 7.4 of the skin), the solubility result is listed as “sparingly soluble”. In addition, the “effect on adipose tissue cell membranes” value in data set [4] is “non-specific rupture of adipose tissue cell membranes”.
